Laboratory results from patent US20040175813A1, “Mutant P53 proteins and uses thereof” (priority 2002, published 2004).

Test system: MCF-7 c-Jun over-expressing cells
Assay: Sensitivity of c-Jun over-expressing cells to apoptotic inducing agents, DNA fragmentation
Assay type: cell-based, human
Conditions: for DNA fragmentation in cells cultured with the agent: FIG. 4A; for Sensitivity of c-Jun over-expressing cells to the apoptotic inducing agent: compared to vector control, FIG. 3
Description: Human MCF-7 cells were stably transfected with wild type transcription factor c-jun and expressed high levels of c-Jun protein. The c-Jun over-expressing MCF-7 cells were obtained from Drs. Michael Birrer (National Institutes of Health, National Cancer Institute, Rockville, Md.) and Paul Brown (Baylor College of Medicine, Houston, Texas). A description of the c-Jun over-expressing MCF-7 cells can be found in Yang et al. (1997) and Smith et al. (1999).
Bax levels were not altered (FIG. 2A).

Compound | DNA fragmentation in cells cultured with the agent | Sensitivity of c-Jun over-expressing cells to the apoptotic inducing agent
CC1=C(/C=C/C(C)=C/C=C/C(C)=C/C(=O)Nc2ccc(O)cc2)C(C)(C)CCC1 [N-(4-hydroxyphenyl) retinamide (4-HPR), N-(4-hydroxyphenyl) retinamide] | high degree of DNA fragmentation | highly sensitive
Cc1c(C)c2c(c(C)c1OC(=O)CCC(=O)O)CC[C@@](C)(CCC[C@H](C)CCC[C@H](C)CCCC(C)C)O2 [vitamin E succinate (VES), vitamin E succinate] | high degree of DNA fragmentation | highly sensitive
ceramide | high degree of DNA fragmentation | highly sensitive
